In a compilation of properties of binary mixtures (doi:10.1016/j.molliq.2018.02.064):

Assay: xn = mol fraction of the nth substance listed
Conditions: 100 kPa

CCCC[n+]1ccn(C)c1.O=S(=O)([N-]S(=O)(=O)C(F)(F)F)C(F)(F)F + CCO
viscosity [mPa·s]
Conditions	x1 = 0.2129	x1 = 0.2688	x1 = 0.4215	x1 = 0.4606	x1 = 0.5784	x1 = 0.6609	x1 = 0.747	x1 = 0.8264	x1 = 1
293 K	5.22	6.47	12.72	13.9	–	24.9	32.4	40.9	63.5
293.3 K	5.19	6.42	12.59	–	20.5	24.6	–	40.4	62.7
293.61 K	5.15	–	12.47	13.7	20.4	24.4	31.8	39.9	–
293.91 K	–	6.33	12.34	–	20.2	–	31.4	39.4	61
294.21 K	5.08	6.28	–	13.42	20	–	31.1	38.9	–
294.52 K	5.05	6.24	12.1	13.3	19.8	23.7	–	–	–
294.82 K	5.01	6.19	–	13.18	19.6	23.5	30.5	38	–
295.12 K	4.98	6.15	–	13.06	19.4	23.3	–	37.6	57.8
295.42 K	–	–	11.75	–	19.2	23.1	29.9	37.1	57
295.73 K	4.91	6.06	11.64	12.82	19	22.8	29.5	–	56.3
296.03 K	4.87	6.02	11.52	12.7	18.9	22.6	29.2	36.2	55.6
296.33 K	4.84	5.98	11.41	12.59	18.7	22.4	28.9	35.8	54.8
296.64 K	4.81	–	11.31	–	18.5	22.2	28.6	35.4	–
296.94 K	4.77	5.89	11.2	–	18.34	22	–	35	53.4
297.24 K	4.74	–	–	12.25	–	21.8	–	34.5	52.7
297.55 K	4.71	5.81	10.99	12.14	18	21.6	27.8	–	52.1
297.85 K	4.68	5.77	10.88	12.04	17.83	21.4	27.5	33.7	–
298.15 K	–	–	10.78	11.93	17.67	21.2	27.2	33.3	50.8
298.45 K	4.61	5.69	10.68	11.82	17.5	–	–	33	50.1
298.76 K	4.58	5.65	–	11.72	17.34	20.8	26.7	–	49.5
299.06 K	–	5.61	10.49	11.62	–	–	26.4	32.2	48.9
299.36 K	4.52	5.57	10.39	11.52	17.03	20.4	26.2	31.8	48.3
299.67 K	4.48	5.53	10.29	–	16.87	20.2	25.9	31.5	47.7
299.97 K	–	5.49	10.2	11.31	–	20	25.6	31.1	47.1
300.27 K	–	5.45	–	11.22	16.56	19.9	–	–	46.5
300.58 K	4.39	5.41	–	11.12	16.41	19.7	25.1	30.4	45.9
300.88 K	4.36	–	–	11.02	16.26	19.5	24.9	30.1	45.4
301.18 K	4.33	–	9.84	10.93	16.11	19.3	24.6	29.7	44.8
301.48 K	–	5.3	9.75	10.83	15.97	19.1	24.4	29.4	44.3
301.79 K	4.27	5.26	9.66	10.74	15.82	19	24.2	29	43.7
302.09 K	4.24	5.22	9.57	10.65	15.68	18.8	23.9	28.7	43.2
302.39 K	4.21	5.19	9.49	–	15.54	18.6	23.7	28.4	42.7
302.7 K	–	–	9.41	10.47	15.4	18.5	–	–	42.2
303 K	4.15	5.11	9.32	–	15.26	18.3	–	27.8	41.7
303.3 K	4.13	–	9.24	10.29	15.12	18.1	23	27.4	41.2
303.61 K	4.1	5.04	9.16	10.2	14.99	18	22.8	27.1	40.7
303.91 K	4.07	5	9.08	10.12	14.85	17.8	22.6	–	40.2
304.21 K	4.04	4.97	9	10.03	14.72	17.6	22.3	26.5	39.8
304.52 K	4.01	4.93	8.92	–	–	17.5	22.1	26.2	–
304.82 K	3.98	–	–	9.87	14.46	17.3	–	26	38.9
305.12 K	3.96	4.86	8.77	9.78	14.33	17.1	21.7	25.7	–
305.42 K	3.93	4.83	8.7	9.7	14.2	16.99	21.5	25.4	38
305.73 K	3.9	4.8	8.62	9.62	14.07	16.84	21.3	25.1	37.5
306.03 K	3.88	–	8.55	9.54	13.95	16.69	21.1	24.8	37.1
306.33 K	3.85	4.73	8.48	9.46	–	16.54	20.9	–	36.7
306.64 K	3.82	–	8.41	9.39	13.7	–	20.7	24.3	36.2
306.94 K	–	4.66	8.34	9.31	13.58	16.24	20.5	24	35.8
307.24 K	3.77	4.63	–	–	13.46	16.09	20.3	23.8	35.4
307.55 K	3.74	4.6	8.2	9.16	13.34	15.95	20.1	23.5	35
307.85 K	3.72	4.56	8.13	9.08	13.23	–	–	–	–
